Some test systems named below: A498 renal; DU-145 prostate; HCT-116 colon; NCI-H226 lung; OVCAR-4 ovarian; RXF 393 renal; SF-268 CNS; SK-OV-3 ovarian; SNB-75 CNS; SR leukemia.
Holding throughout (assay): NCI tumour cell line growth inhibition, 48 h

Values joined by “and” are separate entries in the source; they are usually repeats but may differ in a detail not shown here. Equal entries are not always repeated.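 Results reflect a 48-hour exposure of cells in 96-well plates to compound at five concentrations. Here, GI50 denotes the concentration required for 50% inhibition of growth. The concentration for full growth arrest is given as TGI.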 A value given as a limit tells only on which side of the number the result lay.

Consider `Cc1cc(Nc2nc(-c3cn(-c4ccc(Cl)cc4)nn3)nc3ccccc23)n[nH]1`, for which the GI50 in the experiment on A498 renal is more than 50 µM; in the experiment on DU-145 prostate it was 10.7 µM; in the experiment with HCT-116 colon, 7.64 µM; in the experiment on NCI-H226 lung it was more than 50 µM; with OVCAR-4 ovarian it was 10.1 µM; with RXF 393 renal it was 5.09 µM. Further, the GI50 with SF-268 CNS was 14.6 µM; in the experiment with SK-OV-3 ovarian, 6.82 µM; in the experiment with SNB-75 CNS it was 23 µM; with SR leukemia, 8.78 µM. Moreover, the TGI in the experiment with A498 renal was more than 50 µM; in the experiment with DU-145 prostate, more than 50 µM; in the experiment with HCT-116 colon, 25.4 µM; with NCI-H226 lung it was more than 50 µM; with OVCAR-4 ovarian, more than 50 µM; in the experiment on RXF 393 renal, 26.1 µM. Moreover, the TGI was more than 50 µM in the experiment with SF-268 CNS, 48.5 µM with SK-OV-3 ovarian, more than 50 µM in the experiment with SNB-75 CNS and 40 µM with SR leukemia.

Regarding `COc1ccc(/C(C)=C(\c2ccc(OCCN3CCCCCC3)cc2)c2ccc(OC(=O)C3CCCCC3)cc2)cc1`, the GI50 in the experiment on A498 renal was 1.35 µM; in the experiment with DU-145 prostate, 1.91 µM; with HCT-116 colon, 0.638 µM; in the experiment on NCI-H226 lung it was 2.02 µM; with OVCAR-4 ovarian, 0.785 µM; in the experiment with RXF 393 renal, 0.704 µM. Besides, the GI50 in the experiment on SF-268 CNS is 1.16 µM; in the experiment on SK-OV-3 ovarian it was 1.7 µM; in the experiment on SNB-75 CNS, 1.6 µM; in the experiment on SR leukemia, 0.291 µM. Further, the TGI stood at 3.45 µM in the experiment with A498 renal; 4.54 µM in the experiment on DU-145 prostate; 2.47 µM in the experiment on HCT-116 colon; 4.77 µM with NCI-H226 lung; 3.35 µM with OVCAR-4 ovarian; 2.6 µM in the experiment with RXF 393 renal. Also, the TGI was 4.33 µM in the experiment with SF-268 CNS, 3.96 µM in the experiment with SK-OV-3 ovarian, 3.88 µM in the experiment on SNB-75 CNS and 1.07 µM in the experiment on SR leukemia.

`CCCCCCCCCCNC(=O)CI`: the GI50 in the experiment with A498 renal was 12.4 µM; in the experiment on DU-145 prostate it was 1.95 µM; in the experiment on HCT-116 colon, 1.65 µM; with NCI-H226 lung, 2.19 µM; in the experiment with OVCAR-4 ovarian, 1.87 µM; in the experiment with RXF 393 renal, 1.74 µM. The GI50 in the experiment on SF-268 CNS was 1.86 µM; with SK-OV-3 ovarian, 1.89 µM; in the experiment with SNB-75 CNS, 1.64 µM; with SR leukemia, 0.204 µM. The TGI in the experiment with A498 renal stood at 26.1 µM; in the experiment on DU-145 prostate, 3.72 µM; with HCT-116 colon it was 3.07 µM; with NCI-H226 lung it was 8.84 µM; in the experiment on OVCAR-4 ovarian, 5.42 µM; in the experiment with RXF 393 renal, 3.53 µM. The TGI in the experiment on SF-268 CNS was 3.65 µM; in the experiment on SK-OV-3 ovarian, 3.38 µM; with SNB-75 CNS, 3.09 µM; with SR leukemia, 0.64 µM.

In the case of `COc1ccc(-c2cnnn2-c2nonc2-n2cccc2)cc1`, the GI50 in the experiment with A498 renal is 0.183 µM; in the experiment with DU-145 prostate it was 0.342 µM; in the experiment with HCT-116 colon it was 0.354 µM; in the experiment with NCI-H226 lung, 0.705 µM; with OVCAR-4 ovarian, 1.78 µM; in the experiment on RXF 393 renal, 0.138 µM. The GI50 in the experiment with SF-268 CNS is 0.52 µM; with SK-OV-3 ovarian, 0.319 µM; in the experiment on SNB-75 CNS, 0.222 µM; in the experiment on SR leukemia it was 0.0451 µM. The TGI was 0.893 µM in the experiment with A498 renal; 2.62 µM in the experiment on DU-145 prostate; 33.3 µM in the experiment on NCI-H226 lung; more than 100 µM in the experiment with OVCAR-4 ovarian; 0.609 µM in the experiment on RXF 393 renal; 27.6 µM in the experiment with SF-268 CNS. Moreover, the TGI is 4.28 µM in the experiment on SK-OV-3 ovarian and more than 60.3 µM in the experiment with SR leukemia.

For `Cc1cc(N/N=C/c2ccccn2)nc2ccccc12`, the GI50 is 0.633 µM in the experiment with A498 renal; 0.46 µM in the experiment with DU-145 prostate; 0.393 µM in the experiment on HCT-116 colon; 0.286 µM in the experiment on NCI-H226 lung; 0.166 µM with OVCAR-4 ovarian; 0.321 µM in the experiment with RXF 393 renal. For the same compound, the GI50 in the experiment on SF-268 CNS is 0.44 µM; in the experiment on SK-OV-3 ovarian it was 0.668 µM; with SNB-75 CNS, 0.461 µM; with SR leukemia it was 0.308 µM. The TGI turned out to be 7.05 µM in the experiment on A498 renal; 14.3 µM in the experiment with DU-145 prostate; 5.81 µM in the experiment on HCT-116 colon; 4.93 µM with NCI-H226 lung; 7.2 µM in the experiment with OVCAR-4 ovarian; 4.87 µM with RXF 393 renal. Moreover, the TGI was found to be 15.3 µM with SF-268 CNS, 16 µM in the experiment with SK-OV-3 ovarian, 15.2 µM with SNB-75 CNS and 5 µM in the experiment on SR leukemia.

For the compound `OC(c1cc(-c2ccc(C(F)(F)F)cc2)nc(C(F)(F)F)c1)C1CCCCN1` (stereo not given), the GI50 in the experiment with A498 renal was 1.47 µM; with DU-145 prostate it was 1.76 µM and 2.66 µM; with HCT-116 colon, 1.53 µM; in the experiment with NCI-H226 lung, 1.73 µM and 2.56 µM; in the experiment with SF-268 CNS, 1.85 µM and 3.76 µM; in the experiment on SNB-75 CNS, 1.37 µM and 3.96 µM. In addition, in the experiment with SR leukemia, the GI50 was 0.362 µM. For the same compound, the TGI is 2.82 µM and 6.07 µM with A498 renal; 3.14 µM and 7.06 µM in the experiment with DU-145 prostate; 2.87 µM and 3.47 µM in the experiment with HCT-116 colon; 3.21 µM and 6.83 µM with NCI-H226 lung; 5.6 µM with OVCAR-4 ovarian; 3.15 µM in the experiment with RXF 393 renal. For the same compound, the TGI is 3.46 µM and 13.1 µM in the experiment on SF-268 CNS; 4.75 µM and 5.99 µM in the experiment on SK-OV-3 ovarian; 2.69 µM and 10.6 µM in the experiment on SNB-75 CNS; 2.17 µM and 4.69 µM in the experiment with SR leukemia.

Values taken from PubChem BioAssay (NCI).
